This note sets out measurements from ChEMBL document CHEMBL6127013, “A chemical platform for the efficient screening of arylazopyrazole-based photoswitchable CENP-E inhibitors using mild cyclization reactions” (Bioorg Med Chem Lett, 2024).

Assay [1] deals with T1, Centromere-associated protein E (Homo sapiens, UniProt Q02224). The assay is described as follows: Inhibition of CENP-E (unknown origin) ATPase activity in absence of light illumination.
The target in assay [2] is T1, Centromere-associated protein E. Kind of assay: Inhibition of CENP-E (unknown origin) ATPase activity in presence 365 nm of light illumination.
In a further assay the test system is HeLa. The assay is described as follows: Antiproliferative activity against human HeLa cells assessed as inhibition of cell proliferation. It is filed as functional, cell-based.
Assay [3] addresses T1, Centromere-associated protein E. Kind of assay: Inhibition of CENP-E in human HeLa cells assessed as misaligned chromosome at 1 uM incubated for 2 hrs by DAPI staining based assay. Format: cell-based.

Calls of active or inactive are those of the source. The calls are words filed in the database; no cut-off is given here.

T1 sequence (Q02224 whole entry): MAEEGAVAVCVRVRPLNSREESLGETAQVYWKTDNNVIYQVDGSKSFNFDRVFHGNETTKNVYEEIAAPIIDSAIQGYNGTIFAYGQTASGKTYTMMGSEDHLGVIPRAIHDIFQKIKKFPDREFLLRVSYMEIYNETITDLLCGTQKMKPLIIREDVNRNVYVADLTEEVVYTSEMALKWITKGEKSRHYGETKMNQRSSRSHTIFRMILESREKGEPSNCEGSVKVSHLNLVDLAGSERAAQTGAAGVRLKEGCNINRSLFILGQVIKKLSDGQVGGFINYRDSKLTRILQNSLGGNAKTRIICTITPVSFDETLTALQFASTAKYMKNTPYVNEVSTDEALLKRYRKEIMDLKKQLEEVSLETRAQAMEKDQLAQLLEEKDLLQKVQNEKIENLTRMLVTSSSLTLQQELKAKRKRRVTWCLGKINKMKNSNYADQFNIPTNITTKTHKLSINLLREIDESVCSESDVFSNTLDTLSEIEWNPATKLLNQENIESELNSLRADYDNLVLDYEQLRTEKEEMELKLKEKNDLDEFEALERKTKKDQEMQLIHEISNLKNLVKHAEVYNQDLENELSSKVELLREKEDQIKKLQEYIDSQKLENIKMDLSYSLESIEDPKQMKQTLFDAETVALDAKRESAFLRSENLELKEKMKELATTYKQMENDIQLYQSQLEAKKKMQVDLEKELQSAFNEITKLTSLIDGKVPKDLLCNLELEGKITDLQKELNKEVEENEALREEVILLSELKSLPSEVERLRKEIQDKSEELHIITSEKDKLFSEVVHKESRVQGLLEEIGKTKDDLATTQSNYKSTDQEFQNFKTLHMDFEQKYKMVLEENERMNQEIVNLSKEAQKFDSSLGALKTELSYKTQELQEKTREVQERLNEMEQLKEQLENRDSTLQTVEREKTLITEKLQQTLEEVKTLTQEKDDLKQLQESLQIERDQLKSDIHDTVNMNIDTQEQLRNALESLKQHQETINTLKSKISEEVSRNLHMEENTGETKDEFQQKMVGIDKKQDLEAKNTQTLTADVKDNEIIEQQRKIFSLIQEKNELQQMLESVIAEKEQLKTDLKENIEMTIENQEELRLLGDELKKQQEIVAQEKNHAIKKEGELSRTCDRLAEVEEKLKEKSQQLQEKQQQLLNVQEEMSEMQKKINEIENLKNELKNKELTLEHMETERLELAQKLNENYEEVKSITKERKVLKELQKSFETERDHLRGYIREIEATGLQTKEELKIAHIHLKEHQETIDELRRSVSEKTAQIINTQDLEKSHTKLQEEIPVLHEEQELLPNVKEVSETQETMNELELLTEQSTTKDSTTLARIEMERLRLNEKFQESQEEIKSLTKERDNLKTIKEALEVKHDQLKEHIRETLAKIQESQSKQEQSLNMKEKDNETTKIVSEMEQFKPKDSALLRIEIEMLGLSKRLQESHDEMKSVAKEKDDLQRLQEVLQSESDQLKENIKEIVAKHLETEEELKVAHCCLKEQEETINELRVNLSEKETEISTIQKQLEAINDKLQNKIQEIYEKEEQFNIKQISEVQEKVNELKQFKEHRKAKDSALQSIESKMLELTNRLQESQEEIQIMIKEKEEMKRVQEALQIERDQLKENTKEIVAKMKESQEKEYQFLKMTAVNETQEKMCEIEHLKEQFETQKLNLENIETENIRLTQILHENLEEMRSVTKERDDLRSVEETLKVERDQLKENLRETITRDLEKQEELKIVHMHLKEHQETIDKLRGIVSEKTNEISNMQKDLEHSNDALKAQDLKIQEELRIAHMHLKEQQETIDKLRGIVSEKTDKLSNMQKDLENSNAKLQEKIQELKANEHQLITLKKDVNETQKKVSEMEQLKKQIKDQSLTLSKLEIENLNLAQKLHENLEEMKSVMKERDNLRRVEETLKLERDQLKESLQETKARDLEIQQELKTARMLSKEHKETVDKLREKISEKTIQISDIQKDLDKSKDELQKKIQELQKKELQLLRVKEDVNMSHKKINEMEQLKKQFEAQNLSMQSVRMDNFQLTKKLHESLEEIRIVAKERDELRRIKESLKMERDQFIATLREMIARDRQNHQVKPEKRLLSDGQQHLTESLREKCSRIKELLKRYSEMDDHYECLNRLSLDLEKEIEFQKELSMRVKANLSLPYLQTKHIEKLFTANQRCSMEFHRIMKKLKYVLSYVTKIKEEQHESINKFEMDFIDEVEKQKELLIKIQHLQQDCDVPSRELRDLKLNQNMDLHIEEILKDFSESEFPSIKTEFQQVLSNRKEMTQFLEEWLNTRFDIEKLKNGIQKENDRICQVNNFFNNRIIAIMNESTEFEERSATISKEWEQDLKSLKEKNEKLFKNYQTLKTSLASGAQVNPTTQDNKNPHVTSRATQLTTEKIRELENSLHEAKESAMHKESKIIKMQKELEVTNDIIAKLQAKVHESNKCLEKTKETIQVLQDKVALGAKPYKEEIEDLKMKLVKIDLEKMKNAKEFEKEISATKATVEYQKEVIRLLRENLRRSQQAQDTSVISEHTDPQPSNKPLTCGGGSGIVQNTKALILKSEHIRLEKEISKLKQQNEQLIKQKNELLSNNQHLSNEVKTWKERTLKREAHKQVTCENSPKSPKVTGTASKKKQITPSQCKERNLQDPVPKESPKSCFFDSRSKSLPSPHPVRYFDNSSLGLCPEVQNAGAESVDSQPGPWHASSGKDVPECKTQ

Take `CNC(=O)[C@H](Cc1ccc(/N=N/c2c(C)nn(C(N)=O)c2C)cc1)NC(=O)c1ccc(OC(C)C)c(Cl)c1`: the IC50 in assay [1] was 15.1 nM; in assay [2] it was 129 nM; in the assay with HeLa, 457 nM.

Turning to `CNC(=O)[C@H](Cc1ccc(/N=N/c2c(C)nn(C3CCCCC3)c2C)cc1)NC(=O)c1ccc(OC(C)C)c(Cl)c1`, the IC50 is 105 nM in assay [1] and 97.7 nM in assay [2].

With `CNC(=O)[C@H](Cc1ccc(/N=N/c2c(C)n[nH]c2C)cc1)NC(=O)c1ccc(OC(C)C)c(Cl)c1`, the IC50 was more than 501 nM in assay [1], more than 501 nM in assay [2] and more than 10000 nM with HeLa.

For `CNC(=O)[C@H](Cc1ccc(/N=N/c2c(C)nn(C3=NCCN3)c2C)cc1)NC(=O)c1ccc(OC(C)C)c(Cl)c1`, the IC50 in assay [1] is 240 nM; in assay [2], 417 nM; with HeLa, more than 10000 nM.

Regarding `CNC(=O)[C@H](Cc1ccc(/N=N/c2c(C)nn(C(C)=O)c2C)cc1)NC(=O)c1ccc(OC(C)C)c(Cl)c1`, the 50% inhibitory concentration (IC50) was 209 nM in assay [1], 245 nM in assay [2] and more than 10000 nM with HeLa.

For the molecule `CNC(=O)[C@H](Cc1ccc(/N=N/c2c(C)nn(C=O)c2C)cc1)NC(=O)c1ccc(OC(C)C)c(Cl)c1`, the IC50 in assay [1] was 123 nM; in assay [2], 120 nM; in the assay on HeLa, 550 nM.

Consider `CNC(=O)[C@H](Cc1ccc(/N=N/c2c(C)nn(Cc3ccccc3)c2C)cc1)NC(=O)c1ccc(OC(C)C)c(Cl)c1`, for which the concentration for half-maximal inhibition (IC50) in assay [1] was 204 nM; in assay [2], more than 501 nM; in the assay on HeLa, more than 10000 nM.

On to `CNC(=O)[C@H](Cc1ccc(/N=N/c2c(C)nn(C(=O)c3ccccc3)c2C)cc1)NC(=O)c1ccc(OC(C)C)c(Cl)c1`, for which the IC50 in assay [1] is 204 nM; in assay [2], 129 nM; with HeLa, more than 10000 nM.

Turning to `CNC(=O)[C@H](Cc1ccc(/N=N/c2c(C)nn(C(=N)N)c2C)cc1)NC(=O)c1ccc(OC(C)C)c(Cl)c1`, the IC50 was 245 nM in assay [1], 151 nM in assay [2] and 10000 nM in the assay with HeLa.

With `CNC(=O)[C@H](Cc1ccc(/N=N/c2c(C)noc2C)cc1)NC(=O)c1ccc(OC(C)C)c(Cl)c1`, the half-maximal inhibitory concentration (IC50) is 20 nM in assay [1], 166 nM in assay [2] and 380 nM in the assay on HeLa.

`CCCC(=O)n1nc(C)c(/N=N/c2ccc(C[C@H](NC(=O)c3ccc(OC(C)C)c(Cl)c3)C(=O)NC)cc2)c1C`: the IC50 was 33.9 nM in assay [1], 83.2 nM in assay [2] and 447 nM with HeLa.

In the case of `CNC(=O)[C@H](Cc1ccc(/N=N/c2c(C)nn(C)c2C)cc1)NC(=O)c1ccc(OC(C)C)c(Cl)c1`, the half-maximal inhibitory concentration (IC50) in assay [1] was 15.8 nM; in assay [2] it was 372 nM; in the assay on HeLa, 191 nM.

Regarding `CNC(=O)[C@H](Cc1ccc(/N=N/c2c(C)nn(-c3cccc4ccccc34)c2C)cc1)NC(=O)c1ccc(OC(C)C)c(Cl)c1`, the 50% inhibitory concentration (IC50) was less than 501 nM in assay [1], more than 501 nM in assay [2] and 10000 nM with HeLa.

In the case of `CNC(=O)[C@H](Cc1ccc(/N=N/c2c(C)nn(CCO)c2C)cc1)NC(=O)c1ccc(OC(C)C)c(Cl)c1`, the IC50 was 12 nM in assay [1], 195 nM in assay [2] and 200 nM in the assay with HeLa.

In the case of `CNC(=O)[C@H](Cc1ccc(NN=C(C(C)=O)C(C)=O)cc1)NC(=O)c1ccc(OC(C)C)c(Cl)c1`, the inhibition result in assay [3] is “inactive”.

Regarding `CNC(=O)[C@H](Cc1ccc(/N=N/c2c(C)nn(C(=O)OC)c2C)cc1)NC(=O)c1ccc(OC(C)C)c(Cl)c1`, the IC50 in assay [1] is 380 nM; in assay [2] it was more than 501 nM; in the assay with HeLa it was more than 10000 nM.

Regarding `CNC(=O)[C@H](Cc1ccc(/N=N/c2c(C)nn(C(C)C)c2C)cc1)NC(=O)c1ccc(OC(C)C)c(Cl)c1`, the IC50 in assay [1] was 123 nM; in assay [2], 158 nM; with HeLa it was more than 10000 nM.

With `CNC(=O)[C@H](Cc1ccc(/N=N/c2c(C)nn(C(N)=S)c2C)cc1)NC(=O)c1ccc(OC(C)C)c(Cl)c1`, the IC50 in assay [1] is 145 nM; in assay [2] it was 51.3 nM; with HeLa, 10000 nM.

For the molecule `CNC(=O)[C@H](Cc1ccc(/N=N/c2c(C)nn(-c3ccccn3)c2C)cc1)NC(=O)c1ccc(OC(C)C)c(Cl)c1`, the IC50 in assay [1] was 93.3 nM; in assay [2] it was 162 nM; in the assay with HeLa, 10000 nM.

Consider `CNC(=O)[C@H](Cc1ccc(/N=N/c2c(C)nn(-c3ccc(F)cc3F)c2C)cc1)NC(=O)c1ccc(OC(C)C)c(Cl)c1`, for which the values for the IC50 (in assay [1]; in assay [2]; in the assay with HeLa) were 339 nM, more than 501 nM and 10000 nM, respectively.

One may read the IC50 as the concentration that inhibits the measured activity by half.
